Test results as given in patent US8377905B2, “Stable crystal of 1-(2′-cyano-2′-deoxy-β-D-arabinofuranosyl)cytosine monohydrochloride” (Delta-Fly Pharma, Inc., priority 2009, dated 2013).
Each block holds one compound with its values, some of them ahead of it.

Experiments:
[1] = Stability test: change of crystal form by powder X-ray diffraction after storage; type: physicochemical; conditions: 30 days
Text: (§1) The powder X-ray diffraction data were obtained by irradiating the crystal with CuKα ray (1.541 Å) using an X-ray diffraction apparatus (trade name: PW3050, manufactured by Koninklijke Philips Electronics N.V.), and detecting the angles using a vertical goniometer. The type I and type II crystal powders were respectively spread uniformly on a glass petri dish, and an aluminum foil (or a transparent resin film, for the purpose of storage under light exposure conditions) which was appropriately perforated as vent holes therein was used as a lid, to prepare test samples. These samples were respectively stored for 30 days under four kinds of conditions such as [60° C.], [40° C./relative humidity (RH) 75%], [25° C./relative humidity (RH) 60%, light exposure 2000 lx·hr], and [25° C./relative humidity (RH) 60%, light shading], and then the samples were tested using high performance liquid chromatography (HPLC) and powder X-ray diffraction (XRD). For powder X-ray diffraction (XRD), the analysis was carried out as described above.

[2] = Stability test: content of total analogues by HPLC after storage; type: physicochemical; conditions: for Total analogues (%), amount of increase from the initial value: 30 days vs initial; for Total analogues (%), 10 days: storage 10 days; for Total analogues (%), 18 days: storage 18 days; for Total analogues (%), 30 days: storage 30 days; for Increase in the total analogues: stability test under various conditions (humidification and exposure), 30 days
Protocol: as §1, with “The” for “The powder X-ray diffraction data were obtained by irradiating the crystal with CuKα ray (1.541 Å) using an X-ray diffraction apparatus (trade name: PW3050, manufactured by Koninklijke Philips Electronics N.V.), and detecting the angles using a vertical goniometer. The”, “(XRD).” for “(XRD). For powder X-ray diffraction (XRD), the analysis was carried out as described above.”
For the HPLC analysis, 22.9 mg of the sample was dissolved in 10 mL of 0.01 mol/L hydrochloric acid, and then the content of analogues in the crystal was measured under the following conditions.
Column: Synergi Hydro-RP 80A Phenomenex (φ4.6 mm×25 cm, 4 μm); temperature 25° C.
Mobile phase: 2.05 g of potassium dihydrogen phosphate is dissolved in 3000 mL of water, and phosphoric acid is added to the solution to adjust the pH to 3.0. The mobile phase is prepared by adding 60 mL of methanol to 2940 mL of the solution liquid.
Flow rate: Approximately 1.0 mL/min
Detector: Ultraviolet absorptiometer (measurement wavelength 254 nm)
Standard Sample: • 1-(2′-cyano-2′-deoxy-β-D-arabinofuranosyl)cytosine monohydrochloride
The term “total analogues” refers to the substances detected other than 1-(2′-cyano-2′-deoxy-β-D-arabinofuranosyl)cytosine monohydrochloride), and the term “total analogues (%)” refers to the content ratio of total analogues with respect to the standard sample.

[3] = Heating of the crystal at 80° C. for 2 hours, crystal form by melting point and powder X-ray diffraction; type: physicochemical; conditions: heated at 80° C. for 2 hours
[4] = system: human or mouse tumor cells; conditions: Patent Document 1, Non-Patent Documents 1 and 2; cited from earlier work
[5] = Patent Document 1, Non-Patent Documents 1 and 2; cited from earlier work
[6] = 40° C./75% RH, listed as I, monohydrochloride
[7] = 25° C./60% RH/2000 lx, listed as I, monohydrochloride
[8] = 25° C./60% RH/Light shading, listed as I, monohydrochloride
[9] = 60° C., listed as I, monohydrochloride
[10] = 40° C./75% RH, listed as II, monohydrochloride
[11] = 25° C./60% RH/2000 lx, listed as II, monohydrochloride
[12] = 25° C./60% RH/Light shading, listed as II, monohydrochloride
[13] = 60° C., listed as II, monohydrochloride

Change of crystal form from the initial value ([1]; 25° C./60% RH/2000 lx): No change
Change of crystal form from the initial value ([1]; 25° C./60% RH/Light shading): No change
Change of crystal form from the initial value [1, 6]: No change
Change of crystal form from the initial value ([1]; 60° C.): No change
Total analogues (%), amount of increase from the initial value [2, 7]: 0.06%
Total analogues (%), initial [2, 7]: 0.07%
Total analogues (%), 10 days [2, 7]: 0.09%
Total analogues (%), 18 days [2, 7]: 0.09%
Total analogues (%), 30 days [2, 7]: 0.13%
Total analogues (%), amount of increase from the initial value [2, 8]: 0.00%
Total analogues (%), initial [2, 8]: 0.07%
Total analogues (%), 10 days [2, 8]: 0.07%
Total analogues (%), 18 days [2, 8]: 0.06%
Total analogues (%), 30 days [2, 8]: 0.07%
Total analogues (%), amount of increase from the initial value [2, 6]: −0.02%
Total analogues (%), initial [2, 6]: 0.07%
Total analogues (%), 10 days [2, 6]: 0.07%
Total analogues (%), 18 days [2, 6]: 0.06%
Total analogues (%), 30 days [2, 6]: 0.05%
Total analogues (%), amount of increase from the initial value [2, 9]: 0.00%
Total analogues (%), initial [2, 9]: 0.07%
Total analogues (%), 10 days ([2]; 60° C.): 0.06%
Total analogues (%), 18 days ([2]; 60° C.): 0.07%
Total analogues (%), 30 days ([2]; 60° C.): 0.07%
Increase in the total analogues [2]: not recognized
Compound: Cl.N#C[C@H]1[C@H](O)[C@@H](CO)O[C@H]1n1ccc(N)nc1=O [type I crystal, 1-(2′-cyano-2′-deoxy-β-D-arabinofuranosyl)cytosine monohydrochloride]
Stability of the crystal form (overall conclusion) ([2]; conclusion from the stability test and crystal form conversions): superior stability as compared with the type II crystal or the type III crystal

Change of crystal form on heating [3]: converted to the type I crystal
Compound: Cl.N#CC1C(O)[C@@H](CO)O[C@H]1n1ccc(N)nc1=O (stereo partly drawn) [type III crystal, 1-(2′-cyano-2′-deoxy-β-D-arabinofuranosyl)cytosine monohydrochloride]

Compound: Cl.N#CC1C(O)[C@@H](CO)O[C@H]1n1ccc(N)nc1=O (stereo partly drawn) [compound (1), 1-(2′-cyano-2′-deoxy-β-D-arabinofuranosyl)cytosine monohydrochloride]
In vitro suppressive effect for proliferation of tumor cells [4]: suppressive effect for proliferation
Anti-tumor activity in vivo [5]: excellent anti-tumor activity

Change of crystal form from the initial value ([1]; 25° C./60% RH/2000 lx): No change
Change of crystal form from the initial value [1, 10]: Changed (II → I)
Change of crystal form from the initial value ([1]; 40° C./75% RH, monohydrochloride): converted to the type I crystal
Total analogues (%), amount of increase from the initial value [2, 11]: 0.32%
Total analogues (%), initial [2, 11]: 0.06%
Total analogues (%), 10 days [2, 11]: 0.15%
Total analogues (%), 18 days [2, 11]: 0.23%
Total analogues (%), 30 days [2, 11]: 0.38%
Total analogues (%), amount of increase from the initial value [2, 12]: 0.03%
Total analogues (%), initial [2, 12]: 0.06%
Total analogues (%), 10 days [2, 12]: 0.06%
Total analogues (%), 18 days [2, 12]: 0.07%
Total analogues (%), 30 days [2, 12]: 0.09%
Total analogues (%), amount of increase from the initial value [2, 10]: 0.10%
Total analogues (%), initial [2, 10]: 0.06%
Total analogues (%), 10 days [2, 10]: 0.06%
Total analogues (%), 18 days [2, 10]: 0.08%
Total analogues (%), 30 days [2, 10]: 0.16%
Total analogues (%), amount of increase from the initial value [2, 13]: 0.01%
Total analogues (%), initial [2, 13]: 0.06%
Total analogues (%), 30 days ([2]; 60° C.): 0.07%
Increase in the total analogues [2]: not recognized
Compound: Cl.N#CC1C(O)[C@@H](CO)O[C@H]1n1ccc(N)nc1=O (stereo partly drawn) [type II crystal, 1-(2′-cyano-2′-deoxy-β-D-arabinofuranosyl)cytosine monohydrochloride]
